The text below walks through data of patent EP0795549A1, “Bis-aryloxy(amino)-triazinyl-oxy(amino)aryl derivatives, their preparation and their use as antiviral agents” (American Cyanamid Company, priority 1996, dated 1997).

The subject of one experiment is RSV (A2). Description: viral yield reduction (growth inhibition) assay, RSV. In kind it is cell-based, Respiratory Syncitial Virus. The conditions noted are these: for IC50: human respiratory syncytial virus. The protocol:
(§1) The compounds were tested for biological activity using viral yield reduction assays. Host cells (indicated as HF for human foreskin fibroblasts and as vero, the commonly used African green monkey cell line, in Tables 1 and 1a) were plated at 4 x 10^4 cells/well in cell growth medium with 2% fetal bovine serum or 2% calf serum in 96-well plates (0.1 ml/well) and incubated overnight. The compounds were added to individual wells to give final concentrations ranging from 50 to 0.1 µg/ml in two-fold concentration steps. After 1 hour, virus was added, and the incubation was continued for 4 days with RSV or CMV and for 2 days with HSV. At the end of the experiment, the amount of virus growth was quantitated and the yield reduction at various concentrations of compound was calculated. This allows estimation of the concentration of compound giving 50% reduction in virus growth (IC50).

Experiment [1] deals with CMV (Ad169). The experiment can be described thus: viral yield reduction (growth inhibition) assay, CMV. Type of experiment: cell-based, Cytomegalovirus. The conditions noted are these: for Antiviral IC50 µg/ml CMV /HF: Table 1a; for IC50 µG/mL IN GROWTH […]/ HF: HF host cells. On the procedure:
as §1

Another experiment relates to HSV1 (Patton). The experiment can be described thus: viral yield reduction (growth inhibition) assay, HSV. In kind it is cell-based, Herpes Simplex Virus. The conditions noted are these: for Antiviral IC50 µg/ml HSV Vero: Table 1a, format not given; for IC50 µG/mL IN GROWTH […]/ HF: HF host cells. The protocol:
as §1

The test system of experiment [2] is CMV (Ad169). The experiment can be described thus: viral plaque reduction assay, CMV. Type of experiment: cell-based, Cytomegalovirus. The conditions noted are these: CMV (Ad169), HF host cells. For orientation: Plaque reduction counts the foci of infection that form in a cell layer.
A further experiment deals with RSV. The experiment can be described thus: viral plaque reduction assay, RSV. In kind it is cell-based, Respiratory Syncitial Virus. The note with it: RSV (A2), vero host cells.
A further experiment deals with RSV A2. In kind it is in vivo, cotton rats. The conditions noted are these: rat, in vivo.
Setting [3] is: Table 1a, HF, yield reduction or plaque format not specified.
Setting [4] is: HF host cells, read-out: IC50 µG/mL IN GROWTH […]/ HF.
Setting [5] is: vero host cells, read-out: IC50 µG/mL IN GROWTH […]/ VERO.

Where two headings read alike, the source gives them in different places.

As to “4',4-Bis-{4,6-bis-[3-(bis-carbamoylmethyl-1-sulfamoyl)-phenylamino]-[1,3,5]triazin-2-ylamino}-biphenyl-2,2'-dicarboxylic acid, disodium salt [Example 44]”, in the experiment with RSV (A2) (setting [3]), the “Antiviral IC50 µg/ml RSV/ HF” value is 0.6 µg/mL. In addition, in the experiment with CMV (Ad169) [1] (HF, format not given), the “Antiviral IC50 µg/ml CMV /HF” value turned out to be 1.5 µg/mL. Further, the “Antiviral IC50 µg/ml HSV Vero” value in the experiment with HSV1 (Patton) (HSV1 (Patton)) is 15 µg/mL.
As for “4,4'-Bis[4,6-di[3-aminophenyl-N,N-bis(2-carbamoyl-ethyl)sulfonylimino]-1,3,5-triazin-2-ylamino]-bibenzyl-2,2'-disulfonic acid, disodium salt [Example 11]”, the “IC50 µG/mL IN GROWTH […]/ HF” value was 10 µg/mL with RSV (A2) (HF host cells) and over 50 µg/mL in the experiment on CMV (Ad169) [1]. Besides, the “IC50 µG/mL IN GROWTH […]/ VERO” value in the experiment with RSV (A2) (vero host cells) came to 10 µg/mL.
Turning to “4,4'-Bis[4,6-di[3-aminophenyl-N,N-bis(2-carbamoyl-ethyl)sulfonylimino]-1,3,5-triazin-2-yloxy]-biphenyl-2,2'-disulfonic acid, disodium salt [Example 19]”, the figures for the “IC50 µG/mL IN GROWTH […]/ HF” value with RSV (A2) (HF host cells), with CMV (Ad169) [1] and in the experiment with HSV1 (Patton) (HSV1 (Patton)) were 2 µg/mL, 12 µg/mL and 30 µg/mL, respectively. Further, the “IC50 µG/mL IN GROWTH […]/ VERO” value with RSV (A2) (vero host cells) was 3 µg/mL; in the experiment with HSV1 (Patton) (HSV1 (Patton), vero host cells), about 50 µg/mL.
As to “4,4'-Bis[4,6-di[3-aminophenyl-N,N-bis(2-hydroxyethyl)sulfonyliminol-1,3,5-triazin-2-ylamino]-biphenyl-2,2'-disulfonic acid, disodium salt [Example 22]”, the “IC50 µG/mL IN GROWTH […]/ HF” value amounted to 0.15 µg/mL in the experiment with RSV (A2) (HF host cells) and 4 µg/mL in the experiment with CMV (Ad169) [1]. Also, the “IC50 µG/mL IN GROWTH […]/ VERO” value in the experiment on RSV (A2) (vero host cells) is 0.25 µg/mL. The “IC50µG/mL IN PLAQUE ASSAY CMV/ HF” value in the experiment with CMV (Ad169) [2] came out at 2 µg/mL.
With “4,4'-Bis[4,6-di[3-aminophenyl-N,N-bis(3-hydroxypropyl)-sulfonylimino]-1,3,5-triazin-2-ylamino]-biphenyl-2,2'-disulfonic acid, disodium salt [Example 59]”, in the experiment with RSV (A2) (setting [3]), the “Antiviral IC50 µg/ml RSV/ HF” value turned out to be 0.5 µg/mL. In addition, in the experiment with CMV (Ad169) [1] (HF, format not given), the “Antiviral IC50 µg/ml CMV /HF” value was determined as 4 µg/mL. Moreover, in the experiment with HSV1 (Patton) (HSV1 (Patton)), the “Antiviral IC50 µg/ml HSV Vero” value was 20 µg/mL.
Consider “4,4'-Bis[4,6-di[4-amino-N'-[3-aminophenyl-N,N-bis(2-hydroxyethyl)sulfonylimino]-benzensulfonamide]-1,3,5-triazin-2-ylamino]-stilbene-2,2'-disulfonic acid, disodium salt [Example 25]”, for which the “IC50 µG/mL IN GROWTH […]/ VERO” value in the experiment with RSV (A2) (vero host cells) is 30 µg/mL.
Turning to “4,4'-Bis[4,6-di[4-aminophenyl-N,N-bis(2-carbamoyl-ethyl)sulfonylimino]-1,3,5-triazin-2-ylamino]-biphenyl-2,2'-disulfonic acid, disodium salt [Example 13]”, the “IC50 µG/mL IN GROWTH […]/ HF” value in the experiment on RSV (A2) (HF host cells) turned out to be 8 µg/mL; in the experiment on CMV (Ad169) [1] it was 20 µg/mL; in the experiment on HSV1 (Patton) (HSV1 (Patton)), 10 µg/mL. Also, the “IC50 µG/mL IN GROWTH […]/ VERO” value with RSV (A2) (vero host cells) came out at 8 µg/mL; with HSV1 (Patton) (HSV1 (Patton), vero host cells), 30 µg/mL.
With “4,4'-Bis[4,6-di[4-aminophenyl-N,N-bis(2-carbamoyl-ethyl)sulfonylimino]-1,3,5-triazin-2-ylamino]-stilbene-2,2'-disulfonic acid, disodium salt [Example 12]”, the “IC50µG/mL IN PLAQUE ASSAY RSV/ VERO” value in the experiment with RSV was determined as 8 µg/mL. Besides, in the experiment with CMV (Ad169) [2], the “IC50µG/mL IN PLAQUE ASSAY CMV/ HF” value came out at 10 µg/mL.
As for “4,4'-Bis[4-chloro-6-[3-aminophenyl-N,N-bis(2-carbamoylethyl)sulfonylimino]-1,3,5-triazin-2-ylamino]-stilbene-2,2'-disulphonic acid, disodium salt [Example 8]”, the “IC50 µG/mL IN GROWTH […]/ HF” value in the experiment on RSV (A2) (HF host cells) and with CMV (Ad169) [1] was over 50 µg/mL in each case. Further, the “IC50 µG/mL IN GROWTH […]/ VERO” value with RSV (A2) (vero host cells) was over 50 µg/mL.
For “4,4'-Bis[4-chloro-6-di[4-amino-N'-[3-aminophenyl-N,N-bis(2-carbamoylethyl)sulfonylimino]-benzamide]-1,3,5-triazin-2-ylamino]-stilbene-2,2' -disulfonic acid, disodium salt [Example 24]”, in the experiment with RSV (A2) (vero host cells), the “IC50 µG/mL IN GROWTH […]/ VERO” value is 50 µg/mL.
On to “4-[4,6-Di[3-aminophenyl-N,N-bis(2-carbamoylethyl)sulfonylimino]-1,3,5-triazin-2-ylamino]-4'-[4-[3-aminophenyl-N,N-bis(2-carbamoylethyl)sulfonylimino]-6-[3 -aminophenyl-N,N bis(3-propionic acid)]-1,3,5-triazin-2-ylamino]-stilbene-2,2'-disulphonic acid, disodium salt [Example 10]”, for which the “IC50 µG/mL IN GROWTH […]/ HF” value in the experiment with RSV (A2) (HF host cells) was under 3 µg/mL. Also, the “IC50 µG/mL IN GROWTH […]/ VERO” value with RSV (A2) (vero host cells) stood at 0.7 µg/mL.
Take “4-[4,6-Di[3-aminophenyl-N,N-bis(2-carbamoylethyl)sulfonylimino]-1,3,5-triazin-2-ylamino]-4'-[4-[3-aminophenyl-N,N-bis(2-carbamoylethyl)sulfonylimino]-6-[3 -aminophenyl-N-(2-carbamoylethyl)-N'-(3-propionic acid)]-1,3,5-triazin-2-ylamino]stilbene-2,2'-disulphonic acid, disodium salt [Example 9]”: the “IC50 µG/mL IN GROWTH […]/ HF” value with RSV (A2) (HF host cells) was under 3 µg/mL. The “IC50 µG/mL IN GROWTH […]/ VERO” value in the experiment on RSV (A2) (vero host cells) is 0.4 µg/mL. For the same compound, the “IC50µG/mL IN PLAQUE ASSAY RSV/ VERO” value in the experiment on RSV amounted to 0.3 µg/mL. Besides, the “IC50µG/mL IN PLAQUE ASSAY CMV/ HF” value with CMV (Ad169) [2] came to 10 µg/mL.
As for “4-[4,6-Di[3-aminophenyl-N,N-bis(2-carbamoylethyl)sulfonylimino]-1,3,5-triazin-2-ylamino]-4'-[4-chloro-6-[3-aminophenyl-N,N-bis(2-carbamoylethyl)sulfonylimino] -1,3,5-triazin-2-ylamino]-stilbene-2,2'-disulphonic acid, disodium salt [Example 7]”, the “IC50 µG/mL IN GROWTH […]/ HF” value in the experiment on RSV (A2) (HF host cells) was found to be 0.7 µg/mL. Besides, the “IC50 µG/mL IN GROWTH […]/ VERO” value in the experiment on RSV (A2) (vero host cells) is 1 µg/mL. Moreover, the “IC50µG/mL IN PLAQUE ASSAY RSV/ VERO” value with RSV was 0.8 µg/mL. Also, the “IC50µG/mL IN PLAQUE ASSAY CMV/ HF” value in the experiment with CMV (Ad169) [2] is 10 µg/mL.
For the compound “5,5'-Dimethyl-4,4'-bis[4,6-di[3-aminophenyl-N,N-bis(2-carbamoyl-ethyl)sulfonylimino]-1,3,5-triazin-2-ylamino]-biphenyl-2,2'-disulfonic acid, disodium salt [Example 20]”, the “IC50 µG/mL IN GROWTH […]/ HF” value in the experiment on RSV (A2) (HF host cells) was 0.5 µg/mL. Moreover, the “IC50 µG/mL IN GROWTH […]/ VERO” value with HSV1 (Patton) (HSV1 (Patton), vero host cells) stood at 40 µg/mL.
Regarding “9,9-Dioxo-2,7-Bis[4,6-di[3-aminophenyl-N,N-bis(2-carbamoylethyl)sulfonylimino]-1,3,5-triazin-2-ylamino]-dibenzothiophen-3,6-disulfonic acid, disodium salt [Example 23]”, the “IC50µG/mL IN PLAQUE ASSAY RSV/ VERO” value with RSV was 8 µg/mL. Further, in the experiment with CMV (Ad169) [2], the “IC50µG/mL IN PLAQUE ASSAY CMV/ HF” value stood at 20 µg/mL.
Take `NC(=O)CCN(CCC(N)=O)S(=O)(=O)c1cccc(Nc2nc(Cl)nc(Nc3cccc(S(=O)(=O)N(CCC(N)=O)CCC(N)=O)c3)n2)c1` [Example 6, 2-Chloro-4,6-di[3-aminophenyl-N,N-bis(2-carbamoyl-ethyl)sulfonylimino]-1,3,5-triazine]: the IC50 in the experiment with RSV (A2) (setting [4]) is over 50 µg/mL; with RSV (A2) (setting [5]), over 50 µg/mL; in the experiment with CMV (Ad169) [1] (Human betaherpesvirus 5, HF host cells, read-out: IC50 µG/mL IN GROWTH […]/ HF), over 50 µg/mL.
Consider `O=S(=O)(O)c1cc(O)ccc1-c1ccc(O)cc1S(=O)(=O)O` [Example 17, 4,4'-Dihydroxybiphenyl-2,2'-disulfonic acid], for which the IC50 with RSV (A2) (setting [4]) was over 50 µg/mL; with RSV (A2) (setting [5]) it was over 50 µg/mL; in the experiment with HSV1 (Patton) (Human alphaherpesvirus 1, HSV1 (Patton), vero host cells, read-out: IC50 µG/mL IN GROWTH INHIBITION HSV/ VERO) it was over 50 µg/mL.
Turning to `CC(O)CN(CC(C)O)S(=O)(=O)c1cccc(Nc2nc(Nc3cccc(S(=O)(=O)N(CC(C)O)CC(C)O)c3)nc(Nc3ccc(-c4ccc(Nc5nc(Nc6cccc(S(=O)(=O)N(CC(C)O)CC(C)O)c6)nc(Nc6cccc(S(=O)(=O)N(CC(C)O)CC(C)O)c6)n5)cc4C(=O)[O-])c(C(=O)[O-])c3)n2)c1.[Na+].[Na+]` (stereo not shown) [Example 41, 4,4'-Bis-(4,6-bis-{3-[bis-(2-hydroxy-propyl)-sulfamoyl]-phenylamino}-[1,3,5]triazin-2-ylamino)biphenyl-2,2'-dicarboxylic acid, disodium salt], the IC50 with RSV (A2) (Table 1a, HF, yield reduction or plaque format not specified, read-out: Antiviral IC50 µg/ml RSV/ HF) was 2 µg/mL; in the experiment with CMV (Ad169) [1] (Human betaherpesvirus 5, Table 1a, HF, format not given, read-out: Antiviral IC50 µg/ml CMV /HF) it was 8 µg/mL; in the experiment on HSV1 (Patton) (Human alphaherpesvirus 1, Vero, read-out: Antiviral IC50 µg/ml HSV Vero), over 50 µg/mL.
With `NC(=O)c1ncn([C@@H]2O[C@H](CO)[C@@H](O)[C@H]2O)n1` [Ribavirin, ribavirin, reference compound], in the experiment on RSV A2, the “Fold red. log10” value turned out to be 0.8 log10 and the “Mean titer log10/g lung” value was 3.3 log10/g lung.
